According to patent US20220259656A1, “BLOOD BIOMARKER AND GENETIC MARKERS ASSOCIATED WITH RESPONSE TO CRTH2 RECEPTOR ANTAGONISTS” (Merck Sharp & Dohme Corp., priority 2019, published 2022):

Assays:
[1] = system: patient population afflicted with eosinophilic severe asthma; conditions: patients with eosinophilic severe asthma, Phase IIa; cited from earlier work
[2] = system: participants with persistent asthma uncontrolled on montelukast, positive for C allele of rs12748961 SNP; assay: Randomized, placebo-controlled, double-blind clinical study of Compound A added to montelukast; change from baseline in FEV1; assay type: in vivo, human; conditions: for Average Change From Baseline FEV1 (L), Mean: Cmpd A 150 mg + ML
Procedure: The inventors conducted a world-wide, randomized, placebo-controlled, double-blind, parallel group study of the CRTH2 receptor antagonist, {(7R)-4-fluoro-7-[5-(4-fluorobenzyl)-1H-[1,2,3]triazol-1-yl]-6,7,8,9-tetrahydropyrido[1,2-a]indol-10-yl}-acetic acid (hereinafter “Compound A”) in participants with persistent asthma who remained uncontrolled while being maintained on montelukast (ML). At Prescreening Visit 1, participants were tested for the presence of the rs 12748961 SNP to determine eligibility. The primary efficacy analysis compared the effect of Compound A to placebo, when each was added to montelukast, on the average change from baseline in FEV1 using a constrained longitudinal data analysis model.
Eligible participants were male and female participants between the ages of 18 and 65 with persistent asthma for at least 1 year and a documented SNP+test result. Participants also must have had acceptable lung function at Visit 2 and Visit 4 and evidence of reversibility of airway obstruction. Approximately 139 eligible participants whose asthma was uncontrolled during a run-in period of approximately 2 to 4 weeks entered a 6-week double-blind treatment period and were randomized in a 1:1 ratio to receive either Compound A 150 mg and montelukast 10 mg or Compound A 150 mg matching-image placebo and montelukast 10 mg. Randomization was stratified according to the number of C alleles (having either 1 or 2 copies of the allele) at the rs12748961 SNP. The total study duration for each participant was up to 17 weeks.
FIG. 2 is a graphical depiction of the study design. Briefly, salient activities occurring during the study are described below. During a pre-screening visit, a blood sample is collected to assess for the presence of the C-allele of rs12748961 SNP. At the start of the pre-study period, eligible subjects receiving Long-Acting Beta-Agonist (LABA) therapy were asked to discontinue the LABA. During run-in period (approximately 2 to 4 weeks), subjects receive single-blind Compound A 150 mg matching-image placebo and open-label montelukast 10 mg. Subjects taking asthma controller therapies prior to Visit 2 were asked to discontinue or taper off these pre-study medications before randomization while receiving open-label montelukast 10 mg. During the treatment period (approximately 6 weeks): Subjects received double-blind treatment of Compound A 150 mg plus montelukast 10 mg; or Compound A 150 mg matching-image placebo plus montelukast 10 mg.
In order to identify patient groups susceptible to treatment response, the inventors conducted an analysis on pre-specified patient subgroups in the study based on (a) demographic variables (including age, gender, race, weight, height, and body mass index) and (b) baseline characteristics (including duration of asthma, age diagnosed of asthma, asthma controller pre- trial, ICS use, blood eosinophil count, baseline ACQ-6, and smoking history), (c) prior and secondary diagnoses, (d) prior and concomitant therapies, and (e) the number of C alleles of the rs12748961 SNP on asthmatic study subjects who had undergone a clinical trial with a CRTH2 receptor antagonist and the leukotriene antagonist montelukast. The analysis sought to assess whether a mean treatment difference varies across patient subgroups defined by several pre-specified characteristics and who also tested positive for at least one copy of the C allele of the rs12748961 SNP.

allergic rhinitis = conditions: in vivo; cited from earlier work
[3] = Cmpd A 150 mg + montelukast 10 mg, full study population

In the case of `Cc1c(CC(=O)O)c2cccnc2n1Cc1ccc(S(C)(=O)=O)cc1C(F)(F)F` [fevipiprant, 2-(2-methyl-1-(4-(methylsulfonyl)-2-(trifluoromethyl)benzyl)-1H-pyrrolo[2,3-b]pyridin-3-yl)acetic acid], the sputum eosinophils [1] is listed as “reduction of sputum eosinophils”.

In the case of `O=C(O)Cc1c2n(c3c(F)cccc13)C[C@H](n1nncc1Cc1ccc(F)cc1)CC2` [Compound A, {(7R)-4-fluoro-7-[5-(4-fluorobenzyl)-1H-[1,2,3]triazol-1-yl]-6,7,8,9-tetrahydropyrido[1,2-a]indol-10-yl}-acetic acid], the “Estimated Differences with placebo + ML, Difference in LS Means, FEV1 at Week 4 and Week 6” value ([2]; Cmpd A 150 mg + ML vs. placebo + ML, full study population) is reported as 107 mL, the “Estimated Differences With Placebo + ML, LS Mean, FEV1” value ([2]; Cmpd A 150 mg + ML vs. placebo + ML, subgroup baseline eosinophil count <0.30 × 10^9/L) is reported as 63 mL and the “Estimated Differences With Placebo + ML, LS Mean, FEV1” value ([2]; Cmpd A 150 mg + ML vs. placebo + ML, subgroup baseline eosinophil count >0.30 × 10^9/L) is reported as 193 mL. For the same compound, the “Average Change From Baseline FEV1 (L), Mean” value ([2]; subgroup baseline eosinophil count <0.30 × 10^9/L) was 0.166 L, the “Average Change From Baseline FEV1 (L), Mean” value ([2]; subgroup baseline eosinophil count >0.30 × 10^9/L) was 0.139 L and the “Average Change from Baseline in FEV1 (L) at Week 4 and Week 6, Mean” value [2, 3] was 0.156 L. The “Average Change from Baseline in FEV1 (L) at Week 4 and Week 6, Median” value [2, 3] was 0.091 L, the “FEV1 (L) Average at Week 4 and Week 6, Mean” value ([2]; Cmpd A 150 mg + montelukast 10 mg, full study population, 6-week treatment) was 2.426 L and the “Average Change from Baseline in FEV1 (L) at Week 4 and Week 6, LS Mean” value ([2]; Cmpd A 150 mg + montelukast 10 mg, full study population, cLDA model) was 0.152 L.

In the case of `O=C(O)CCn1c2c(c3ccccc31)C[C@H](NS(=O)(=O)c1ccc(F)cc1)CC2` [Ramatroban, 3-((3R)-3-{[(4-fluorophenyl)sulfonyl]amino}-1,2,3,4-tetrahydro-9H-carbazol-9-yl)propanoic acid], the “efficacy in allergic rhinitis” value (allergic rhinitis) is listed as “some degree of efficacy”.
